The values below come from patent US8901111B2, “Aryl-substituted heterocyclic urea modulators of fatty acid amide hydrolase” (Janssen Pharmaceutica NV, priority 2009, dated 2014).

Experiment [1] deals with T1, rat FAAH (Rattus norvegicus, UniProt P97612).
T1 construct: expressed in transfected cells; crude homogenate
T1 sequence (P97612 1-579): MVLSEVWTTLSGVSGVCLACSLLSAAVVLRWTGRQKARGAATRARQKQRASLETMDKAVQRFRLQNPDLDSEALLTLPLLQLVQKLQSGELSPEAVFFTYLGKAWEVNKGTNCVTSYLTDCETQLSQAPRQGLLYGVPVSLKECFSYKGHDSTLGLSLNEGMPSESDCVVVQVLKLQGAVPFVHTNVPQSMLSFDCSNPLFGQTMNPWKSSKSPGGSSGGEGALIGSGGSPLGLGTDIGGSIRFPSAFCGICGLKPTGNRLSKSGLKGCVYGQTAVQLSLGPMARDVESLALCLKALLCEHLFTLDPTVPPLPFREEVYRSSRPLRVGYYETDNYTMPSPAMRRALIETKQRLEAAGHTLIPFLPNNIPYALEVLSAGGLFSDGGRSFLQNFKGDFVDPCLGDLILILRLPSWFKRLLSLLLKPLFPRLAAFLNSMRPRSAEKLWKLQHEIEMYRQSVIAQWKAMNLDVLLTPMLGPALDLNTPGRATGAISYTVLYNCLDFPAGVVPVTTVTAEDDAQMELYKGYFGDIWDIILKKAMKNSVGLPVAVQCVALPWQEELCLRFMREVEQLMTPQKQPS
The experiment can be described thus: Assay Method 2: FAAH assay, 3H-anandamide hydrolysis in homogenate of cells transfected with rat FAAH. In kind it is biochemical. Conditions: cell homogenate, 3H-AEA 80 nM, 1 h at rt, average of results. The method, boiled down:
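Homogenate of SK-N-MC cells stably transfected with rat FAAH, in pH 9 Tris/EDTA/glycerol/Triton buffer, incubated 1 h at rt with 80 nM final [1-3H-ethanolamine]anandamide. Released 3H-ethanolamine separated from substrate on activated charcoal filters by centrifugation and quantified by scintillation counting.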

The target of experiment [2] is T2, FAAH (Homo sapiens, UniProt O00519).
T2 sequence (O00519 1-579): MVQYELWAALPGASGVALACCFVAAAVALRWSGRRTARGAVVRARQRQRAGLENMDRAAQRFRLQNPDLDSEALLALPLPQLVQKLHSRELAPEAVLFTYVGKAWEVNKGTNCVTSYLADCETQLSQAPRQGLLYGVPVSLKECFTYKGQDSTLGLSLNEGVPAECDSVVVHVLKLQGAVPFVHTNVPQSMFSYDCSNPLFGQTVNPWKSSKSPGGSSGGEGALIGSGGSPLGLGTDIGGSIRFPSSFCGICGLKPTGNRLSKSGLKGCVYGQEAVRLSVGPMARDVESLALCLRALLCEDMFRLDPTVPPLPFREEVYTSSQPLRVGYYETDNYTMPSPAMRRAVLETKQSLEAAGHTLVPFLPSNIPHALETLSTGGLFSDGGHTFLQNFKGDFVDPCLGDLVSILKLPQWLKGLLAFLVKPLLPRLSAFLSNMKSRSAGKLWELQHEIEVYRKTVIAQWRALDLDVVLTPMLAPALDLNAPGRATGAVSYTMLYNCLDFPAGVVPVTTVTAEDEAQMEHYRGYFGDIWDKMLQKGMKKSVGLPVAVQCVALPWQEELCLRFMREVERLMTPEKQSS
Put plainly: Assay Method 1: FAAH assay, 3H-anandamide hydrolysis in homogenate of cells transfected with human FAAH. In kind it is biochemical. Conditions: cell homogenate, 3H-AEA 80 nM, 1 h at rt, average of results. Also noted: expressed in transfected cells; crude homogenate (T84 cell pellets named as alternative). Put shortly: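 Homogenates of SK-N-MC cells stably transfected with human FAAH (or T84 cells) in pH 9 Tris/EDTA/glycerol/Triton buffer, incubated with compound and 80 nM final ^3H-anandamide for 1 h at rt. Released ^3H-ethanolamine separated through activated charcoal by centrifugation and counted by scintillation.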

Molecules are shown by their SMILES. Structures can show the parent of a compound that is named as a salt.

By IC50 is commonly meant the point on the concentration scale where inhibition reaches its midpoint. In the case of `O=C(Nc1cnc2cccnn12)N1CC(CCOc2cccc(Oc3ccc(Cl)cc3)c2)C1` [Example 1, 3-{2-[3-(4-Chloro-phenoxy)-phenoxy]-ethyl}-azetidine-1-carboxylic acid imidazo[1,2-b]pyridazin-3-ylamide], the IC50 in experiment [1] came to 4 nM; in experiment [2], 5 nM.

As to `O=C(Nc1cccnc1)N1CC(COc2ccc(Br)cc2)C1` [Example 3, 3-(4-Bromo-phenoxymethyl)-azetidine-1-carboxylic acid pyridin-3-ylamide], the half-maximal inhibitory concentration (IC50) in experiment [1] and in experiment [2] was more than 10000 nM throughout.

Consider `O=C(Nc1cccnc1)N1CCC(COc2cccc(Oc3ccc(Cl)cc3)c2)C1` (centres unmarked) [Example 51, 3-{[3-(4-Chlorophenoxy)phenoxy]methyl}-N-pyridin-3-ylpyrrolidine-1-carboxamide], for which the results for the IC50 in experiment [1] and in experiment [2] were 62 nM and 200 nM, respectively.

`O=C(Nc1cccnc1)N1CC(COc2ccc(OCc3ccccc3)cc2)C1` [Example 19, 3-(4-Benzyloxy-phenoxymethyl)-azetidine-1-carboxylic acid pyridin-3-ylamide]: the IC50 in experiment [1] and in experiment [2] was more than 10000 nM each time.

On to `O=C(Nc1cccnc1)N1CC(COc2ccc(OC(F)(F)F)cc2)C1` [Example 5, 3-(4-Trifluoromethoxy-phenoxymethyl)-azetidine-1-carboxylic acid pyridin-3-ylamide], for which the 50% inhibitory concentration (IC50) was 3000 nM in experiment [1] and more than 10000 nM in experiment [2].

Take `O=C(Nc1cccnc1)N1CC(CCOCc2ccc(Cl)c(Cl)c2)C1` [Example 68, 3-[2-(3,4-Dichloro-benzyloxy)-ethyl]-azetidine-1-carboxylic acid pyridin-3-ylamide, trifluoroacetate salt]: the IC50 in experiment [1] was found to be 1230 nM; in experiment [2] it was 849 nM.

Turning to `O=C(Nc1ccc2nccn2c1)N1CC(CCOc2cccc(Oc3ccc(Cl)cc3)c2)C1` [Example 41, 3-{2-[3-(4-Chloro-phenoxy)-phenoxy]-ethyl}-azetidine-1-carboxylic acid imidazo[1,2-a]pyridin-6-ylamide], the IC50 in experiment [1] was found to be 1000 nM; in experiment [2], 3000 nM.

For the molecule `O=C(Nc1cccnc1)N1CCC(CCc2cccc(Oc3ccc(F)cc3)c2)C1` (centres unmarked) [Example 79, 3-{2-[3-(4-Fluoro-phenoxy)-phenyl]-ethyl}-pyrrolidine-1-carboxylic acid pyridin-3-ylamide], the IC50 in experiment [1] was found to be 48 nM; in experiment [2], 58 nM.

Regarding `CS(=O)(=O)c1ccc(Oc2cccc(OCC3CN(C(=O)Nc4cccnc4)C3)c2)cc1` [Example 24, 3-[3-(4-Methanesulfonyl-phenoxy)-phenoxymethyl]-azetidine-1-carboxylic acid pyridin-3-ylamide], the values for the IC50 in experiment [1] and in experiment [2] were 380 nM and 58 nM, respectively.

On to `O=C(Nc1cccc2nccn12)N1CCC(Cc2cccc(Oc3ccc(F)cc3)c2)C1` (centres unmarked) [Example 76, 3-[3-(4-Fluoro-phenoxy)-benzyl]-pyrrolidine-1-carboxylic acid imidazo[1,2-a]pyridin-5-ylamide], for which the IC50 in experiment [1] came to 70 nM; in experiment [2], 400 nM.

For `O=C(Nc1cccnc1)N1CCC(CCOc2cccc(OC(F)(F)F)c2)C1` (centres unmarked) [Example 59, 3-[2-(3-Trifluoromethoxy-phenoxy)-ethyl]-pyrrolidine-1-carboxylic acid pyridin-3-ylamide], the IC50 in experiment [1] and in experiment [2] was more than 10000 nM in each case.

For the molecule `O=C(Nc1cccnc1)N1CC(CCOc2ccc(Cl)c(C(F)(F)F)c2)C1` [Example 45, 3-[2-(4-Chloro-3-trifluoromethyl-phenoxy)-ethyl]-azetidine-1-carboxylic acid pyridin-3-ylamide], the figures for the half-inhibitory concentration (IC50) in experiment [1] and in experiment [2] were 43 nM and 700 nM, respectively.

Consider `C#Cc1cccc(OCC2CN(C(=O)Nc3cccnc3)C2)c1` [Example 11, 3-(3-Ethynyl-phenoxymethyl)-azetidine-1-carboxylic acid pyridin-3-ylamide], for which the IC50 is 1600 nM in experiment [1] and 370 nM in experiment [2].

Consider `O=C(Nc1cnccc1Cl)N1CCC(COc2ccc(Cl)c(Cl)c2)C1` (centres unmarked) [Example 49, N-(4-Chloropyridin-3-yl)-3-[(3,4-dichlorophenoxy)methyl]pyrrolidine-1-carboxamide], for which the IC50 in experiment [1] worked out at 33 nM; in experiment [2], 9 nM.

As to `O=C(Nc1noc2ccccc12)N1CC(CCOc2cccc(Oc3ccc(Cl)cc3)c2)C1` [Example 43, 3-{2-[3-(4-Chloro-phenoxy)-phenoxy]-ethyl}-azetidine-1-carboxylic acid benzo[d]isoxazol-3-ylamide], the half-maximal inhibitory concentration (IC50) stood at 1 nM in experiment [1] and 4 nM in experiment [2].

As to `O=C(Nc1cccnc1)N1CCC(CCOc2cccc(Oc3ccc(Cl)cc3)c2)C1` (centres unmarked) [Example 63, 3-{2-[3-(4-Chloro-phenoxy)-phenoxy]-ethyl}-pyrrolidine-1-carboxylic acid pyridin-3-ylamide], the IC50 in experiment [1] is 630 nM; in experiment [2], 600 nM.

Turning to `CS(=O)(=O)c1ccc(Oc2cccc(OCCC3CN(C(=O)Nc4cccnc4)C3)c2)cc1` [Example 27, 3-{2-[3-(4-Methanesulfonyl-phenoxy)-phenoxy]-ethyl}-azetidine-1-carboxylic acid pyridin-3-ylamide], the IC50 in experiment [1] stood at 480 nM; in experiment [2], 15 nM.

Consider `CCCCOc1cccc(OCC2CN(C(=O)Nc3cccnc3)C2)c1` [Example 12, 3-(3-Butoxy-phenoxymethyl)-azetidine-1-carboxylic acid pyridin-3-ylamide], for which the IC50 was more than 10000 nM in experiment [1] and 300 nM in experiment [2].

With `O=C(Nc1cccnc1)N1CC(COc2ccc3ncccc3c2)C1` [Example 15, 3-(Quinolin-6-yloxymethyl)-azetidine-1-carboxylic acid pyridin-3-ylamide, trifluoroacetate salt], the IC50 in experiment [1] and in experiment [2] was more than 10000 nM in each case.

`O=C(Nc1cncc2ccccc12)N1CC(CCOc2cccc(Oc3ccc(Cl)cc3)c2)C1` [Example 38, 3-{2-[3-(4-Chloro-phenoxy)-phenoxy]-ethyl}-azetidine-1-carboxylic acid isoquinolin-4-ylamide]: the concentration for half-maximal inhibition (IC50) was 5 nM in experiment [1] and 27 nM in experiment [2].

`O=C(Nc1cccnc1)N1CC(COc2ccc(Cl)c(Cl)c2)C1` [Example 21, 3-(3,4-Dichloro-phenoxymethyl)-azetidine-1-carboxylic acid pyridin-3-ylamide]: the IC50 was 530 nM in experiment [1] and 1000 nM in experiment [2].

Take `O=C(Nc1cccnc1)N1CC(COc2cccc(OC(F)(F)F)c2)C1` [Example 6, 3-(3-Trifluoromethoxy-phenoxymethyl)-azetidine-1-carboxylic acid pyridin-3-ylamide]: the IC50 in experiment [1] was 175 nM; in experiment [2], 1100 nM.

Regarding `CS(=O)(=O)c1ccc(Oc2cccc(OCC3CCN(C(=O)Nc4cnccc4Cl)C3)c2)cc1` (centres unmarked) [Example 50, N-(4-Chloropyridin-3-yl)-3-({3-[4-(methylsulfonyl)phenoxy]phenoxy}methyl)pyrrolidine-1-carboxamide], the IC50 in experiment [1] was determined as 97 nM; in experiment [2], 9 nM.

Regarding `O=C(Nc1ccc(-n2nccn2)nc1)N1CC(CCOc2cccc(Oc3ccc(Cl)cc3)c2)C1` [Example 39, 3-{2-[3-(4-Chloro-phenoxy)-phenoxy]-ethyl}-azetidine-1-carboxylic acid (6-[1,2,3]triazol-2-yl-pyridin-3-yl)-amide], the results for the IC50 in experiment [1] and in experiment [2] were 10 nM and 13 nM, respectively.

Regarding `O=C(Nc1cnccc1Cl)N1CC[C@@H](COc2cccc(Oc3ccc(Cl)cc3)c2)C1` [Example 56, (3R)-3-[3-(4-Chloro-phenoxy)-phenoxymethyl]-pyrrolidine-1-carboxylic acid (4-chloro-pyridin-3-yl)-amide], the IC50 in experiment [1] was 2 nM; in experiment [2], 4 nM.
